The values below come from US20190038628A1, “USE OF INHIBITORS OF THE ACTIVITY OR FUNCTION OF PI3K FOR THE TREATMENT OF PRIMARY SJOGREN'S SYNDROME” (Novartis AG, priority 2016, published 2019).

In assay [1] the test system is Human Peripheral Blood Mononuclear Cells (PBMC). Nature of the assay: TLR9 ligand-induced CXCL13 production of human PBMC. Format: cell-based. To be noted: ODN stimulus; for CXCL13 in culture supernatant: individual donors 1-6; for CXCL13 in culture supernatant, mean: mean of 6 donors. From the text: For evaluating the effect of compound A on the production of chemokines relevant for the formation of germinal centers, PBMC were isolated from Buffy Coat (collected through Inter-Regionale Blutspende of the Swiss Red Cross) by standard Ficoll gradient centrifugation using Ficoll-Paque plus (GE healthcare #17-1440-03) in Leucosep tubes (Greiner Bio-one #227289). Cells were washed two times with PBS and then resuspended at 2.2×10^6/mL in RPMI 1640 medium supplemented with 10% FBS, Gentamycine (50 ug/ml), Insulin-Transferrin-Selenium and P-Mercaptoethanol (50 uM).
PBMC were dispensed to 48-well plates (Costar #3548) and incubated with pre-diluted compound A resulting in a dilution with a final concentration of 0.3, 1 or 3 uM. Control samples were pretreated with DMSO to obtain a final concentration of 0.03% DMSO. Samples were mixed thoroughly and incubated in a humified incubator at 37° C. for 1 h. Cells were thereafter stimulated by the addition of the TLR9 agonist ODN M362 (Invivogen, #tlrl-m362) at a final concentration of 30 ug/ml or anti-IgM-Dextran (Finabiosolution #0004) at a final concentration of 2 ug/ml. Control samples were left unstimulated. Samples were mixed thoroughly and incubated in a humified incubator at 37° C. for 24 h.
After the stimulation, culture supernatants were harvested and chemokines quantified by Bio-Plex Multiplex immunoassay (CXCL13; Bio Rad #171 BK12MR2) or MSD V-Plex assay (IP-10; Meso Scale Diagnostics) or according to the manufacturer's instructions.

In the next assay the test system is B cells from Buffy Coat. Nature of the assay: CXCL13-induced B cell migration (transwell). The class given is cell-based, human. To be noted: for cell count (migrated B cells): mean of 4 wells. The procedure:
PBMC were isolated from Buffy Coat as described above. Cells were washed two times with PBS and then resuspended at 5×10^7/mL in PBS containing 2% FBS and 1 mM EDTA. Further B cell purification was performed via depletion of non-B cells with an EasySep™ Human B Cell Enrichment Kit (STEMCELL Technologies #19054) according to the manufacture's instruction. In brief, 4×10^8 PBMCs in 8 ml isolation buffer were incubated with 400 ul of enrichment cocktail in a 14 mL round-bottom tube for 10 minutes at room temperature. PBMC were further incubated with 600 ul of magnetic particles for 5 minutes at room. For B cell isolation, the tube was placed into the magnet for 5 min and enriched B cells were collected in a fresh 14 ml tube. Cells were then washed and resuspended at 5×10^6/mL in RPMI 1640 medium supplemented with 10% FBS, Gentamycine (50 ug/ml), Insulin-Transferrin-Selenium and P-Mercaptoethanol (50 uM).
Isolated B cells were dispensed to 5 ml round-bottom tube (Costar #352054) and incubated with pre-diluted compound A resulting in a dilution with a final concentration of 10, 1, 0.1 or 0.01 uM. Control samples were pretreated with DMSO to obtain a final concentration of 0.1% DMSO. Samples were mixed thoroughly and incubated in a water bath at 37° C. for 30 minutes. Some 235 ul of CXCL13 (R&D Systems #801-CX) in a dilution with a final concentration of 100 nM was added to the wells of the 96-well transwell receiver plate (Costar #3387). Control wells were filled with 235 ul medium. The 5 um permeable support insert was added to the receiver plate and filled with 80 ul of pre-incubated B cells. Transwell plate was incubated in a humified incubator at 37° C. for 3 h. Permeable support insert was removed and cell number in receiver plate was assessed by flow cytometry.

In a further assay the test system is PI3K/Akt pathway. Nature of the assay: pAkt in B cells in stimulated whole blood clinical samples after single oral administration. The class given is in vivo. To be noted: healthy human subjects. As for the experimental part: For assessment of the in vivo effects of compound A on human B cell activation measured as Akt phosphorylation vlinical samples were prepared from whole blood using a Na-Heparin monovette system.
Whole blood was then incubated with either anti-IgM/IL-4 (7.5 μg/ml of anti-IgM [Southern Biotech] and 7.5 ng/ml of IL-4 [R&D]) or with PBS (unstimulated sample). Incubation was performed using 95 μl of blood (in duplicates) in plate format within 1 h after blood collection. Cultures were mixed well by gently pipetting up and down and incubated at 37° C. (in incubator, 5% CO2). After 30 min whole blood was lysed and fixed with pre-warmed (37° C.) BD PhosFlow-Lyse/Fix buffer (1600 μl) for 20 minutes at 37° C. (water bath) in the dark. The lysed and fixed blood samples were immediately frozen and stored at −80° C. until further processing.
Clinical samples were processed within one week after blood collection. After thawing was completed (at 37° C. water-bath), samples were centrifuged at 502 g (1580 rpm) for 5 min at room temperature. Then pelleted cells were washed with 500 μL ice cold BD Phosflow Perm II buffer, mixed well and kept on ice for 30-35 minutes. […]
Samples were analyzed on the same day. […] Data was calculated as percent inhibition of pAkt relative to the baseline value.

Each structure is given as a SMILES string. “And” between values parts separate entries of the source, which are not always exact repeats. Equal values may be shown once.

As a reminder, the inhibition is the change of the read-out against control, counted positive when it falls. A high value points to a strong effect. With `CCC(=O)N1CC[C@H](Nc2ncnc3c2CN(c2cnc(OC)c(C(F)(F)F)c2)CC3)C1` [Compound A, 1-{(S)-3-[6-(6-Methoxy-5-trifluoromethyl-pyridin-3-yl)-5,6,7,8-tetrahydro-pyrido[4,3-d]pyrimidin-4-ylamino]-pyrrolidin-1-yl}-propan-1-one], 0.3 µM produced 40% inhibition in assay [1] (Homo sapiens, PBMC, Compound A 300 nM). Moreover, the inhibition at 1 µM in assay [1] (Homo sapiens, PBMC, Compound A 1000 nM) amounted to 51%; in the assay with B cells from Buffy Coat (Homo sapiens, B-cell, compound A 1000 nM), 52%. Further, at 3 µM the inhibition in assay [1] (Homo sapiens, PBMC, Compound A 3000 nM) was 55%. Moreover, the “CXCL13 in culture supernatant” value in assay [1] (Compound A 300 nM) was 8 pg/ml (2×) and 3 pg/ml and 39 pg/ml and 113 pg/ml and 51 pg/ml; in assay [1] (Compound A 1000 nM) it was 7 pg/ml and 3 pg/ml and 42 pg/ml (2×) and 84 pg/ml and 6 pg/ml; in assay [1] (Compound A 3000 nM), 5 pg/mL and 3 pg/mL and 29 pg/mL and 86 pg/mL and 41 pg/mL and 4 pg/mL. Besides, the “CXCL13 in culture supernatant, mean” value in assay [1] (Compound A 300 nM) amounted to 37 pg/mL; in assay [1] (Compound A 1000 nM), 31 pg/mL; in assay [1] (Compound A 3000 nM) it was 28 pg/mL. In the assay with B cells from Buffy Coat (Homo sapiens, B-cell, compound A 10 nM), this compound returned an inhibition at 0.01 µM of 13%. The inhibition at 0.1 µM with B cells from Buffy Coat (Homo sapiens, B-cell, compound A 100 nM) worked out at 39%. Moreover, the inhibition at 10 µM in the assay with B cells from Buffy Coat (Homo sapiens, B-cell, compound A 10000 nM) was 79%. Further, the “cell count (migrated B cells)” value in the assay on B cells from Buffy Coat (compound A 10 nM) is reported as 6165; in the assay with B cells from Buffy Coat (compound A 100 nM), 4556; with B cells from Buffy Coat (compound A 1000 nM), 3743; in the assay on B cells from Buffy Coat (compound A 10000 nM) it was 2043. Further, the “pathway inhibition (PI3K/Akt)” value in the assay with PI3K/Akt pathway (single administration of 80 mg, over 12 hours) was “greater than 80%”. In the assay on PI3K/Akt pathway (single oral administration), the “inhibition of the PI3K/Akt pathway (in words)” value is “dose-, concentration- and time-dependent inhibition”.
